Data taken from the NIST ThermoML archive (doi:10.1016/j.tca.2014.10.001).

Assay: mn = molality of the nth substance listed, in mol/kg
Details: 100 kPa, Liquid; for electrical conductivity: Alternating current cell with electrodes; for speed of sound: Frequency=3 MHz, Sing-around technique in a fixed-path interferometer; for mass density: Vibrating tube method

CCCCn1cc[n+](C)c1C.F[B-](F)(F)F [1-butyl-2,3-dimethylimidazolium tetrafluoroborate] + O
Details	electrical conductivity [S/m]	mass density [kg/m3]	speed of sound [m/s]
288.15 K, m1 = 0.03	0.229	–	–
288.15 K, m1 = 0.0308	–	1000.29	1471.8
288.15 K, m1 = 0.0312	0.236	–	–
288.15 K, m1 = 0.0324	0.245	–	–
288.15 K, m1 = 0.0338	0.256	–	–
288.15 K, m1 = 0.0353	0.265	–	–
288.15 K, m1 = 0.0369	0.276	–	–
288.15 K, m1 = 0.0386	0.288	–	–
288.15 K, m1 = 0.0406	0.303	–	–
288.15 K, m1 = 0.04107	–	1000.68	1474.2
288.15 K, m1 = 0.0427	0.319	–	–
288.15 K, m1 = 0.0451	0.336	–	–
288.15 K, m1 = 0.0477	0.355	–	–
288.15 K, m1 = 0.0507	0.375	–	–
288.15 K, m1 = 0.05137	–	1001.08	1476.5
288.15 K, m1 = 0.0541	0.399	–	–
288.15 K, m1 = 0.058	0.427	–	–
288.15 K, m1 = 0.06162	–	1001.46	1478.6
288.15 K, m1 = 0.0624	0.457	–	–
288.15 K, m1 = 0.0677	0.491	–	–
288.15 K, m1 = 0.07	0.508	–	–
288.15 K, m1 = 0.0725	0.526	–	–
288.15 K, m1 = 0.0752	0.542	–	–
288.15 K, m1 = 0.0781	0.564	–	–
288.15 K, m1 = 0.0812	0.586	–	–
288.15 K, m1 = 0.08198	–	1002.23	1482.5
288.15 K, m1 = 0.0846	0.608	–	–
288.15 K, m1 = 0.0882	0.634	–	–
288.15 K, m1 = 0.0922	0.661	–	–
288.15 K, m1 = 0.0966	0.688	–	–
288.15 K, m1 = 0.1014	0.713	–	–
288.15 K, m1 = 0.1024	–	1002.99	1485.2
288.15 K, m1 = 0.1068	0.745	–	–
288.15 K, m1 = 0.1127	0.772	–	–
288.15 K, m1 = 0.1193	0.806	–	–
288.15 K, m1 = 0.1231	–	1003.74	1486.4
288.15 K, m1 = 0.1267	0.846	–	–
288.15 K, m1 = 0.1352	0.891	–	–
288.15 K, m1 = 0.1436	–	1004.47	1487.1
288.15 K, m1 = 0.1448	0.941	–	–
288.15 K, m1 = 0.1559	0.997	–	–
288.15 K, m1 = 0.164	–	1005.19	1487.7
288.15 K, m1 = 0.1688	1.06	–	–
288.15 K, m1 = 0.1841	1.14	–	–
288.15 K, m1 = 0.1846	–	1005.91	1488.2
288.15 K, m1 = 0.2025	1.23	–	–
288.15 K, m1 = 0.205	–	1006.62	1488.7
298.15 K, m1 = 0.0306	0.247	–	–
298.15 K, m1 = 0.0308	–	998.165	1500.7
298.15 K, m1 = 0.031	0.249	–	–
298.15 K, m1 = 0.0323	0.259	–	–
298.15 K, m1 = 0.0337	0.27	–	–
298.15 K, m1 = 0.0352	0.28	–	–
298.15 K, m1 = 0.0368	0.291	–	–
298.15 K, m1 = 0.0387	0.305	–	–
298.15 K, m1 = 0.0407	0.319	–	–
298.15 K, m1 = 0.04107	–	998.537	1502.3
298.15 K, m1 = 0.0429	0.334	–	–
298.15 K, m1 = 0.0454	0.351	–	–
298.15 K, m1 = 0.0472	0.366	–	–
298.15 K, m1 = 0.0491	0.379	–	–
298.15 K, m1 = 0.0513	0.395	–	–
298.15 K, m1 = 0.05137	–	998.909	1504
298.15 K, m1 = 0.0536	0.413	–	–
298.15 K, m1 = 0.0562	0.432	–	–
298.15 K, m1 = 0.0575	0.441	–	–
298.15 K, m1 = 0.059	0.45	–	–
298.15 K, m1 = 0.0605	0.462	–	–
298.15 K, m1 = 0.06162	–	999.277	1505.7
298.15 K, m1 = 0.0621	0.472	–	–
298.15 K, m1 = 0.0637	0.485	–	–
298.15 K, m1 = 0.0655	0.498	–	–
298.15 K, m1 = 0.0674	0.513	–	–
298.15 K, m1 = 0.0694	0.528	–	–
298.15 K, m1 = 0.0715	0.54	–	–
298.15 K, m1 = 0.0737	0.557	–	–
298.15 K, m1 = 0.0761	0.575	–	–
298.15 K, m1 = 0.0786	0.595	–	–
298.15 K, m1 = 0.0813	0.615	–	–
298.15 K, m1 = 0.08198	–	1000	1509
298.15 K, m1 = 0.0842	0.636	–	–
298.15 K, m1 = 0.0874	0.658	–	–
298.15 K, m1 = 0.0907	0.682	–	–
298.15 K, m1 = 0.0943	0.708	–	–
298.15 K, m1 = 0.0983	0.735	–	–
298.15 K, m1 = 0.1024	–	1000.72	1511.6
298.15 K, m1 = 0.1026	0.761	–	–
298.15 K, m1 = 0.1072	0.787	–	–
298.15 K, m1 = 0.1123	0.816	–	–
298.15 K, m1 = 0.1179	0.847	–	–
298.15 K, m1 = 0.1231	–	1001.43	1512.3
298.15 K, m1 = 0.1242	0.881	–	–
298.15 K, m1 = 0.1311	0.92	–	–
298.15 K, m1 = 0.1388	0.962	–	–
298.15 K, m1 = 0.1436	–	1002.11	1513
298.15 K, m1 = 0.1474	1.01	–	–
298.15 K, m1 = 0.1573	1.06	–	–
298.15 K, m1 = 0.164	–	1002.79	1513.5
298.15 K, m1 = 0.1685	1.12	–	–
298.15 K, m1 = 0.1815	1.19	–	–
298.15 K, m1 = 0.1846	–	1003.47	1514
298.15 K, m1 = 0.1966	1.27	–	–
298.15 K, m1 = 0.205	–	1004.13	1514.6
298.15 K, m1 = 0.2145	1.35	–	–
308.15 K, m1 = 0.0308	–	995.089	1523
308.15 K, m1 = 0.0309	0.278	–	–
308.15 K, m1 = 0.032	0.287	–	–
308.15 K, m1 = 0.0333	0.299	–	–
308.15 K, m1 = 0.0347	0.305	–	–
308.15 K, m1 = 0.0362	0.32	–	–
308.15 K, m1 = 0.0379	0.331	–	–
308.15 K, m1 = 0.0397	0.344	–	–
308.15 K, m1 = 0.04107	–	995.443	1524.2
308.15 K, m1 = 0.0417	0.359	–	–
308.15 K, m1 = 0.0439	0.378	–	–
308.15 K, m1 = 0.0463	0.396	–	–
308.15 K, m1 = 0.049	0.415	–	–
308.15 K, m1 = 0.05137	–	995.796	1525.5
308.15 K, m1 = 0.0521	0.437	–	–
308.15 K, m1 = 0.0556	0.462	–	–
308.15 K, m1 = 0.0596	0.493	–	–
308.15 K, m1 = 0.06162	–	996.146	1526.8
308.15 K, m1 = 0.0642	0.531	–	–
308.15 K, m1 = 0.0695	0.568	–	–
308.15 K, m1 = 0.0719	0.585	–	–
308.15 K, m1 = 0.0745	0.603	–	–
308.15 K, m1 = 0.0772	0.624	–	–
308.15 K, m1 = 0.0802	0.649	–	–
308.15 K, m1 = 0.08198	–	996.836	1529
308.15 K, m1 = 0.0834	0.673	–	–
308.15 K, m1 = 0.0869	0.698	–	–
308.15 K, m1 = 0.0906	0.727	–	–
308.15 K, m1 = 0.0947	0.756	–	–
308.15 K, m1 = 0.0992	0.788	–	–
308.15 K, m1 = 0.1024	–	997.517	1531.1
308.15 K, m1 = 0.1042	0.819	–	–
308.15 K, m1 = 0.1097	0.851	–	–
308.15 K, m1 = 0.1158	0.883	–	–
308.15 K, m1 = 0.1225	0.919	–	–
308.15 K, m1 = 0.1231	–	998.186	1531.7
308.15 K, m1 = 0.1302	0.965	–	–
308.15 K, m1 = 0.1388	1.01	–	–
308.15 K, m1 = 0.1436	–	998.836	1532.1
308.15 K, m1 = 0.1487	1.07	–	–
308.15 K, m1 = 0.1602	1.13	–	–
308.15 K, m1 = 0.164	–	999.479	1532.5
308.15 K, m1 = 0.1735	1.2	–	–
308.15 K, m1 = 0.1846	–	1000.13	1533
308.15 K, m1 = 0.1892	1.29	–	–
308.15 K, m1 = 0.205	–	1000.75	1533.6
308.15 K, m1 = 0.208	1.4	–	–
